Marks after values point to notes of the source that are not given here.
System: full thickness skin
Experiment: Whole genome array of skin gene expression after topical DBP (time course)
Type: in vivo, C57BL/6J mice
Method: Mice: C57BL/6J female mice obtained from The Jackson Laboratory were used between 8 and 12 weeks of age.
Treatment: Mice were untreated or treated topically on the dorsal side of each ear with […] of dibutylphthalate (DBP). At the designated time points after treatment, the animals were euthanized and the ears washed with 70% isopropanol. Full thickness skin was obtained from the dorsal side of both ears and placed immediately in liquid nitrogen. The time between euthanasia and placement of both skin samples in liquid nitrogen was less than 1 minute. Each sample for RNA extraction contained two dorsal ear skin samples obtained from a single mouse both of whose ears received the same treatment.
RNA Extraction: While in liquid nitrogen, the skin was pulverized with a motorized mortar and pestle (CryoGrinder), transferred by inversion of the mortar directly into 1.5 ml cryogenic vials (Nalgene) and stored in liquid nitrogen until RNA extraction. Total RNA from both ears was extracted by homogenization (Pro200) in TRIzol Reagent (Invitrogen) with 7.5 μg of RNase-free glycogen added to the mixture, according to the manufacturer's directions. The RNA was purified on a solid phase RNeasy MinElute Cleanup column (Qiagen) and eluted with 17 μL of RNase-free water. The samples were stored at −20° C. until use.
Quantification of RNA: RNA yields were quantified by UV absorption using a NanoDrop NG-1000 spectrophotometer, where 1 AU 260 equals 40 μg RNA/ml. Purity was estimated by the 260 and 280 nm absorbance ratio; values between 1.7 and 2.1 were considered acceptable.
Assessment of RNA Quality: The quality of sample RNA was assessed using a RNA 6000 LABCHIP Kit on an Agilent 2100 Bioanalyzer. The Bioanalyzer determines the integrity/purity of the RNA samples and permits the screening of total and mRNA sample degradation and ribosomal RNA contamination. An RNA 6000 ladder was also loaded on a specified well and used as a reference for data analysis and a built-in quality control measure. The quality and integrity of the RNA was determined through visual inspection of each electropherogram. In general, only samples with a RIN (RNA integrity number) of 7 or greater, as determined by the Bioanalyzer, were used for gene arrays. This quality control analysis was repeated following the labeling procedure to ensure that the probes were efficiently labeled and had the correct size before hybridization to the chips. All samples that were run on genome wide arrays were obtained as independent duplicates from two individual mice.
Microarray Data Interpretation: Gene expression was compared between untreated and treated total RNA samples. “Transition” data, which represent the change in expression level for a given gene, are presented as a “weighted difference.” Changes in gene expression level were considered to be significant when the adjusted p values were less than […]. The “gene expression signature” arbitrarily includes only those genes that were transcribed with a weighted increase of 2.0 or greater, which was sustained over the subsequent time points tested.
The weighted difference is a metric that takes into account both the variability between different time-points and the variability between replicates at the same time-point. The calculations are performed for each time-point transition, i.e., 30 minutes vs. 1 hour, 1 hour vs. 2 hours, etc. There are two steps to the calculation: the calculation of a modified Euclidean difference between the two time-points, and the calculation of the Euclidean difference between the replicates within each time-point. The first measure is an unweighted difference, while the final metric given in the spreadsheet “weights” this difference by taking into account the second measure.
In a Euclidean difference calculation, each data point is considered as a vector in a multi-dimensional space, and the actual straight-line distance between the data points is calculated. […]

[1] = First 15 min after DBP application

## CCCCOC(=O)c1ccccc1C(=O)OCCCC [DBP, dibutylphthalate]
2 hr
  DBP Unique genes, number: 42
  DBP-Induced genes (≧2x Increased Expression), number: 112
  TLR-Induced among DBP-induced genes, number: 70^#
2 hr to 4 hr Transition
  Acot5 Change in Gene Expression (Weighted Difference): 2.191
  Akr1c18 Change in Gene Expression (Weighted Difference): −0.08563
  Areg Change in Gene Expression (Weighted Difference): 3.401
  Atp2c2 Change in Gene Expression (Weighted Difference): −0.002189
  Btg2 Change in Gene Expression (Weighted Difference): 1.009
  Ccr4 Change in Gene Expression (Weighted Difference): 0.03996
  Cdh10 Change in Gene Expression (Weighted Difference): −0.008005
  Cish Change in Gene Expression (Weighted Difference): 0.7204
  Cox17 Change in Gene Expression (Weighted Difference): −0.1255
  Ctgf Change in Gene Expression (Weighted Difference): 2.29
  Cysltr1 Change in Gene Expression (Weighted Difference): −0.8049
  Ddx21 Change in Gene Expression (Weighted Difference): 2.413
  Dlx4 Change in Gene Expression (Weighted Difference): 3.05
  Dusp14 Change in Gene Expression (Weighted Difference): 2.291
  Egr1 Change in Gene Expression (Weighted Difference): 2.348
  Egr2 Change in Gene Expression (Weighted Difference): 0.5934
  Fam115c Change in Gene Expression (Weighted Difference): 2.163
  Fbxo42 Change in Gene Expression (Weighted Difference): 2.267
  Fosl1 Change in Gene Expression (Weighted Difference): 4.432
  Frk Change in Gene Expression (Weighted Difference): −0.0494
  Gart Change in Gene Expression (Weighted Difference): 5.268
  Gbp8 Change in Gene Expression (Weighted Difference): −0.04223
  Gem Change in Gene Expression (Weighted Difference): 1.546
  Gimap7 Change in Gene Expression (Weighted Difference): 0.03205
  Has1 Change in Gene Expression (Weighted Difference): 2.54
  Ier3 Change in Gene Expression (Weighted Difference): 4.521
  Il10 Change in Gene Expression (Weighted Difference): 2.932
  Il10ra Change in Gene Expression (Weighted Difference): 0.1254
  Il20 Change in Gene Expression (Weighted Difference): 2.876
  Irf4 Change in Gene Expression (Weighted Difference): 3.715
  Jun Change in Gene Expression (Weighted Difference): 0.9971
  Junb Change in Gene Expression (Weighted Difference): 0.9119
  Kcnk1 Change in Gene Expression (Weighted Difference): 32.8
  LOC100046066 Change in Gene Expression (Weighted Difference): −0.1464
  LOC100046410 Change in Gene Expression (Weighted Difference): 2.134
  Lcn5 Change in Gene Expression (Weighted Difference): 3.183
  Madcam1 Change in Gene Expression (Weighted Difference): −0.01081
  Maml1 Change in Gene Expression (Weighted Difference): 3.564
  Map3k11 Change in Gene Expression (Weighted Difference): 2.249
  Med17 Change in Gene Expression (Weighted Difference): −2.259E−05
  Mkks Change in Gene Expression (Weighted Difference): −0.2406
  Mndal Change in Gene Expression (Weighted Difference): 0.09548
  Mtap7d1 Change in Gene Expression (Weighted Difference): 6.99
  Myc Change in Gene Expression (Weighted Difference): 1.296
  Myh3 Change in Gene Expression (Weighted Difference): 8.012
  Myl2 Change in Gene Expression (Weighted Difference): 12.2
  N6amt2 Change in Gene Expression (Weighted Difference): −0.02824
  Nedd4l Change in Gene Expression (Weighted Difference): 2.067
  Nr4a1 Change in Gene Expression (Weighted Difference): 4.572
  P2ry1 Change in Gene Expression (Weighted Difference): −0.2494
  Palmd Change in Gene Expression (Weighted Difference): 2.134
  Prf1 Change in Gene Expression (Weighted Difference): −0.1682
  Prss23 Change in Gene Expression (Weighted Difference): 6.983
  Pxmp4 Change in Gene Expression (Weighted Difference): 3.362
  Rai12 Change in Gene Expression (Weighted Difference): 6.683
  Rassf5 Change in Gene Expression (Weighted Difference): 2.519
  Sik1 Change in Gene Expression (Weighted Difference): 1.009
  Slc25a25 Change in Gene Expression (Weighted Difference): 2.285
  Slc39a8 Change in Gene Expression (Weighted Difference): 2.101
  Tiparp Change in Gene Expression (Weighted Difference): 2.281
  Tmed3 Change in Gene Expression (Weighted Difference): −0.1013
  Tmem51 Change in Gene Expression (Weighted Difference): 6.104
  Tnfaip8l1 Change in Gene Expression (Weighted Difference): 2.28
  Tnip1 Change in Gene Expression (Weighted Difference): 3.267
  Tnni1 Change in Gene Expression (Weighted Difference): 3.47
  Tnnt1 Change in Gene Expression (Weighted Difference): 2.946
  Trib1 Change in Gene Expression (Weighted Difference): 2.432
  Zfp36 Change in Gene Expression (Weighted Difference): 2.638
  Zfp326 Change in Gene Expression (Weighted Difference): 2.164
4 hr
  % Shared (DBP-induced genes also TLR-induced): 64%
  DBP Unique genes, number: 13
  DBP-Induced genes (≧2x Increased Expression), number: 36
  TLR-Induced among DBP-induced genes, number: 23^#
[1]
  Acot5 Change in Gene Expression (Weighted Difference): 2.251
  Akr1c18 Change in Gene Expression (Weighted Difference): 3.655
  Atp2c2 Change in Gene Expression (Weighted Difference): 5.815
  Btg2 Change in Gene Expression (Weighted Difference): 61.87
  Ccr4 Change in Gene Expression (Weighted Difference): 2.16
  Cdh10 Change in Gene Expression (Weighted Difference): 2.487
  Cish Change in Gene Expression (Weighted Difference): 2.011
  Cox17 Change in Gene Expression (Weighted Difference): 2.318
  Cysltr1 Change in Gene Expression (Weighted Difference): 7.656
  Egr1 Change in Gene Expression (Weighted Difference): 3.561
  Egr2 Change in Gene Expression (Weighted Difference): 2.003
  Frk Change in Gene Expression (Weighted Difference): 6.498
  Gbp8 Change in Gene Expression (Weighted Difference): 4.073
  Gem Change in Gene Expression (Weighted Difference): 2.491
  Gimap7 Change in Gene Expression (Weighted Difference): 4.789
  Ier3 Change in Gene Expression (Weighted Difference): 5.581
  Il10ra Change in Gene Expression (Weighted Difference): 2.325
  Jun Change in Gene Expression (Weighted Difference): 6.095
  Junb Change in Gene Expression (Weighted Difference): 4.5
  LOC100046066 Change in Gene Expression (Weighted Difference): 2.503
  Madcam1 Change in Gene Expression (Weighted Difference): 4.39
  Med17 Change in Gene Expression (Weighted Difference): 3.949
  Mkks Change in Gene Expression (Weighted Difference): 11.97
  Mndal Change in Gene Expression (Weighted Difference): 2.311
  Myc Change in Gene Expression (Weighted Difference): 24.16
  N6amt2 Change in Gene Expression (Weighted Difference): 3.347
  Nr4a1 Change in Gene Expression (Weighted Difference): 5.48
  P2ry1 Change in Gene Expression (Weighted Difference): 2.279
  Prf1 Change in Gene Expression (Weighted Difference): 7.177
  Sik1 Change in Gene Expression (Weighted Difference): 3.072
  Slc39a8 Change in Gene Expression (Weighted Difference): 3.193
  Tmed3 Change in Gene Expression (Weighted Difference): 2.37
  Zfp36 Change in Gene Expression (Weighted Difference): 4.19
Total
  % Shared (DBP-induced genes also TLR-induced): 64%
  DBP Unique genes, number: 200
  DBP-Induced genes (≧2x Increased Expression), number: 561 (33*)
  TLR-Induced among DBP-induced genes, number: 361 (340^#)
